Test results reported in PubChem BioAssay (NCI).
Values joined by “and” are separate entries in the source; they are usually repeats but may differ in a detail not shown here. Identical values can stand only once.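 In this assay, cells in 96-well plates receive the compound at five concentrations for 48 hours. Endpoints are linearly interpolated between the surrounding concentrations. GI50: concentration for 50% inhibition of growth. Definition used: TGI = concentration required for complete inhibition of growth.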

How the values were obtained:
Assay in all cases: NCI tumour cell line growth inhibition, 48 h
[1] = system: CCRF-CEM leukemia
[2] = system: UO-31 renal
[3] = system: RPMI-8226 leukemia
[4] = system: HS 578T breast
[5] = system: SW-620 colon
[6] = system: MCF7 breast
[7] = system: MDA-MB-435
[8] = system: SF-539 CNS
[9] = system: UACC-257 melanoma
[10] = system: SR leukemia

Work on Cc1cn2c(/C=N/N=C(N)N)c(-c3ccccn3)nc2s1 yielded a GI50 [1] of 12.3 µM, a TGI [1] of over 100 µM and a GI50 [2] of 7.98 µM. It also gave a TGI [2] of over 20.5 µM, a GI50 [3] of 7.53 µM and a TGI [3] of over 84.7 µM. The GI50 [4] was 19.5 µM, the TGI [4] was 55.6 µM and the GI50 [5] was 7.61 µM. For the same compound, the TGI [5] was 25 µM, the GI50 [6] was 10.2 µM and the TGI [6] was over 68.2 µM. For the same compound, the GI50 [7] was 19 µM, the TGI [7] was 41.6 µM and the GI50 [8] was 3.35 µM. The TGI [8] was 14.4 µM, the GI50 [9] was 7.78 µM and the TGI [9] was 17.9 µM.
In the case of C=C1C(OC(=O)/C=C/c2ccccc2)CC(OC(C)=O)C2(C)C1CC1CC(OC(C)=O)C(C)=C(C(OC(C)=O)C2OC(C)=O)C1(C)C (stereo unspecified), the TGI [1] was over 100 µM, the TGI [2] was over 100 µM and the TGI [3] was over 100 µM. It also gave a TGI [5] of over 100 µM, a TGI [8] of over 100 µM and a TGI [10] of over 100 µM.
O=C1c2ccccc2-c2c1c1c(O)cccc1n2Cc1ccccn1 showed a GI50 [1] of 29.5 µM, a TGI [1] of over 100 µM and a GI50 [2] of over 100 µM. The TGI [2] was over 100 µM, the GI50 [3] was 19.9 µM and the TGI [3] was over 100 µM. For the same compound, the GI50 [4] was 33.6 µM, the TGI [4] was over 100 µM and the GI50 [5] was 42 µM. The TGI [5] was over 100 µM, the GI50 [6] was 62.4 µM and the TGI [6] was over 100 µM. It also gave a GI50 [7] of 27.4 µM, a TGI [7] of over 100 µM and a GI50 [8] of 17 µM. The TGI [8] was 44.1 µM, the GI50 [9] was 23.1 µM and the TGI [9] was 60.4 µM.
With COC(=O)C12OCC34C(CC5C(C)C6=CC(=O)OC6=CC5(C)C3C(O)C1O)OC(=O)C(O)C24 (stereo unspecified) the TGI [2] was 61.8 µM, the GI50 [3] was 0.0333 µM and the TGI [3] was 0.116 µM and 0.25 µM. The GI50 [5] was 0.282 µM, the TGI [5] was 9.4 µM and the GI50 [8] was 0.0328 µM. The TGI [8] was 0.116 µM and 0.397 µM, the GI50 [9] was 0.339 µM and the TGI [9] was 8.5 µM.
C/C=C(\CCOS(=O)(=O)c1ccc(C)cc1)[Si](C)(C)C gave a TGI [1] of 27.3 µM, a TGI [2] of over 100 µM and a TGI [3] of over 100 µM. The TGI [5] was over 100 µM, the TGI [8] was over 100 µM and the TGI [9] was over 100 µM. It also gave a TGI [10] of over 100 µM.
Oc1c(Cl)cc(Cl)cc1C(c1cc(Cl)cc(Cl)c1O)C(Cl)(Cl)Cl gave a GI50 [1] of 2.86 µM, a TGI [1] of 24.8 µM and a GI50 [3] of 1.8 µM. The TGI [3] was 54.2 µM, the GI50 [4] was 2.28 µM and the TGI [4] was 10.4 µM. The GI50 [5] was 2.98 µM, the TGI [5] was 12.2 µM and the GI50 [6] was 2.7 µM. The TGI [6] was 14.2 µM, the GI50 [7] was 2.13 µM and the TGI [7] was 5.12 µM. For the same compound, the GI50 [8] was 3.17 µM, the TGI [8] was 13 µM and the GI50 [9] was 3.33 µM. It also gave a TGI [9] of 9.18 µM.
For O=NNc1ccc(Sc2ccc(NN=O)cn2)nc1, the TGI [1] was over 100 µM, the TGI [2] was over 100 µM and the TGI [4] was over 100 µM. It also gave a TGI [5] of over 100 µM, a TGI [6] of over 100 µM and a TGI [8] of over 100 µM. The TGI [9] was over 100 µM and the TGI [10] was over 100 µM.
CC([C@H]1CCC2C3CCC4C[C@@H](N)CC[C@]4(C)C3CC[C@@]21C)N(C)C (stereo partly specified) gave a GI50 [1] of 6.69 µM, a TGI [1] of 23.3 µM and a GI50 [2] of 2.34 µM. The TGI [2] was 7.74 µM, the GI50 [3] was 3.04 µM and the TGI [3] was 11.7 µM. It also gave a GI50 [4] of 3.35 µM, a TGI [4] of 16.1 µM and a GI50 [5] of 2.74 µM. It also gave a TGI [5] of 7.73 µM, a GI50 [6] of 4.17 µM and a TGI [6] of 18.1 µM. The GI50 [7] was 2.26 µM, the TGI [7] was 5.27 µM and the GI50 [8] was 2.01 µM. The TGI [8] was 4.98 µM, the GI50 [9] was 2.4 µM and the TGI [9] was 5.42 µM.
CC(=O)O[C@@]1(C)[C@@H](C)C(=O)O[C@@H]2CCN3CC=C(COC(=O)[C@]1(C)O)[C@H]23 was tested, and the TGI [1] was over 100 µM, the TGI [2] was over 100 µM and the TGI [3] was over 100 µM. For the same compound, the TGI [5] was over 100 µM, the TGI [8] was over 100 µM and the TGI [9] was over 100 µM. The TGI [10] was over 100 µM.
O=C1OC(=O)C2CCCC3CCCC1C32 (stereo unspecified) was tested, and the TGI [1] was over 100 µM, the TGI [2] was over 100 µM and the TGI [3] was over 100 µM. The TGI [4] was over 100 µM, the TGI [5] was over 100 µM and the TGI [6] was over 100 µM. It also gave a TGI [7] of over 100 µM, a TGI [8] of over 100 µM and a TGI [9] of over 100 µM.
Compound O=C1C2C(C(=O)N1c1ccccc1)C1([N+](=O)[O-])C=C3c4ccccc4N(C(=O)c4ccccc4)C32C2C(=O)N(c3ccccc3)C(=O)C21 (stereo unspecified) has a TGI [1] of over 100 µM, a TGI [2] of over 100 µM and a TGI [5] of over 100 µM. It also gave a TGI [9] of over 100 µM and a TGI [10] of over 100 µM.
For NC1=NN(c2ccccc2)C(=O)C1C(=O)C(=O)Nc1nccs1 (stereo unspecified), the TGI [1] was over 100 µM, the TGI [2] was over 100 µM and the TGI [3] was over 100 µM. For the same compound, the TGI [5] was over 100 µM, the TGI [8] was over 100 µM and the TGI [9] was over 100 µM. For the same compound, the TGI [10] was over 100 µM.
C=C(CO)[C@@H]1CC[C@]2(COC3CCCCO3)CC[C@]3(C)[C@H](CC[C@@H]4[C@@]5(C)C=C(C=O)C(=O)C(C)(C)[C@@H]5CC[C@]43C)[C@@H]12 (stereo partly specified) gave a GI50 [1] of 0.211 µM, a TGI [1] of 1.12 µM and a GI50 [2] of 0.187 µM. The TGI [2] was 0.433 µM, the GI50 [3] was 0.244 µM and the TGI [3] was 0.777 µM. The GI50 [4] was 0.318 µM, the TGI [4] was 0.997 µM and the GI50 [5] was 0.267 µM. It also gave a TGI [5] of 0.832 µM, a GI50 [6] of 0.479 µM and a TGI [6] of 1.97 µM. The GI50 [7] was 0.214 µM, the TGI [7] was 0.494 µM and the GI50 [8] was 0.196 µM. The TGI [8] was 0.428 µM, the GI50 [9] was 0.367 µM and the TGI [9] was 1.61 µM.
In the case of Cc1ccc(C(=O)/C=C/c2cccc([N+](=O)[O-])c2)cc1, the TGI [1] was over 89.9 µM, the TGI [2] was over 100 µM and the TGI [3] was over 78.8 µM. For the same compound, the TGI [5] was 43.7 µM, the TGI [8] was over 100 µM and the TGI [9] was over 100 µM. It also gave a TGI [10] of 51.1 µM.
Compound Clc1ccccc1CNc1c2ccccc2nc2ccccc12 has a GI50 [1] of 2.74 µM, a TGI [1] of 50 µM and a GI50 [2] of 1.35 µM. For the same compound, the TGI [2] was 6.96 µM, the GI50 [4] was 5.97 µM and the TGI [4] was 18.1 µM. It also gave a GI50 [5] of 1.67 µM, a TGI [5] of 6.56 µM and a GI50 [6] of 1.27 µM. It also gave a TGI [6] of 5.63 µM, a GI50 [7] of 1.96 µM and a TGI [7] of 8.14 µM. It also gave a GI50 [8] of 1.84 µM, a TGI [8] of 6.71 µM and a GI50 [9] of 2.99 µM. The TGI [9] was 11.5 µM, the GI50 [10] was 1.89 µM and the TGI [10] was 6.99 µM.
Compound Cc1cccc(C(C)(C)C)c1NC(=O)CCc1nc(=S)[nH][nH]1 has a TGI [1] of over 100 µM, a TGI [2] of over 100 µM and a TGI [3] of over 100 µM. It also gave a TGI [5] of over 100 µM, a TGI [8] of over 100 µM and a TGI [9] of over 100 µM.
For O=C(CC(=O)c1cccc2ccccc12)C(=O)NC1C2CC3CC(C2)CC1C3 (stereo unspecified), the TGI [1] was over 100 µM, the TGI [2] was over 100 µM and the TGI [3] was over 100 µM. The TGI [5] was over 100 µM, the TGI [8] was over 100 µM and the TGI [9] was over 100 µM.
Work on CO/N=C(\COc1ccc2oc(-c3ccccc3)cc(=O)c2c1)c1ccc(OC)cc1 yielded a GI50 [1] of 29.7 µM, a TGI [1] of 74.8 µM and a GI50 [2] of 22.8 µM. The TGI [2] was 58.5 µM, the GI50 [3] was 27.9 µM and the TGI [3] was 81.9 µM. For the same compound, the GI50 [4] was 35.1 µM, the TGI [4] was over 100 µM and the GI50 [5] was 25.6 µM. For the same compound, the TGI [5] was over 100 µM, the GI50 [7] was 15 µM and the TGI [7] was 36.9 µM. For the same compound, the GI50 [8] was 24.4 µM, the TGI [8] was 64.7 µM and the GI50 [9] was 23.4 µM. It also gave a TGI [9] of 63.3 µM, a GI50 [10] of 11.3 µM and a TGI [10] of 36.9 µM.
With Cc1cccc2c1CCC21OC(=O)c2c1ccc1ccccc21 (stereo unspecified) the TGI [1] was over 100 µM, the TGI [2] was over 100 µM and the TGI [5] was over 100 µM. The TGI [9] was 85.5 µM and the TGI [10] was 85.3 µM.
